Assay results: US5624923A, “Tricyclic diazepine vasopressin antagonists and oxytocin antagonists” (priority 1995, dated 1997)
Values belong to the molecule of their own block, whether it stands above or below them.

How the values were obtained:
[1] = target: T1, Rat Hepatic V1 Receptors (Rattus norvegicus, UniProt P30560); test: Binding Assay to Rat Hepatic V1 Receptors; details: for IC50: rat liver membranes, read-out: V1 IC50; for inhibition at 10 µM: 2 h, rat
T1 construct: Rat liver plasma membranes expressing the vasopressin V1 receptor subtypes; from tissue; host or cells: rat liver plasma membranes

[2] = tested on: Vasopressin V2; test: Vasopressin V2 Antagonist Activity in Conscious Hydrated Rats; format: in vivo, rat; details: AVP 0.4 μg/kg i.p.
How it was run: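 Four-hour urine output, osmolality and electrolytes (Na+, K+, Cl−) recorded in water-loaded rats (30 mL/kg deionized water orally) given AVP i.p. at 0.4 μg/kg. Test compounds were given orally at 0.1–100 mg/kg 1 h before AVP; 2–4 rats per compound.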

[3] = tested on: Vasopressin V1; test: Vasopressin V1 Antagonist Activity in Conscious Rats (vasopressin vasopressor response); format: in vivo, rat; design: Average Change: unit not given here; details: for % Inhibition / Average Change: SHR
How it was run: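 Conscious rats are restrained supine, and under local 2% procaine a PE 10/20 cannula is passed through the ventral caudal tail artery into the lower abdominal aorta. The caudal vein is cannulated for intravenous dosing. Blood pressure is recorded with a Statham P23Db transducer, and vasopressin injections are repeated after compound dosing. Percent antagonism is calculated against the pre-drug vasopressor response taken as 100%.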

[4] = 10 mg/kg i.v., VAS 0.01 i.u./kg, 30 min
[5] = 10 mg/kg i.v., VAS 0.01 i.u./kg, 60 min
[6] = 10 mg/kg i.v., VAS 0.01 i.u./kg, 90 min
[7] = 10 mg/kg i.v., VAS 0.01 i.u./kg, 120 min
[8] = 10 mg/kg i.v., VAS 0.01 i.u./kg, 180 min
[9] = 10 mg/kg i.v., VAS 0.01 i.u./kg, 240 min
[10] = 10 mg/kg i.v., VAS 0.01 i.u./kg, 300 min
[11] = 10 mg/kg i.v., VAS 0.02 i.u./kg, 30 min
[12] = 10 mg/kg i.v., VAS 0.02 i.u./kg, 60 min
[13] = 10 mg/kg i.v., VAS 0.02 i.u./kg, 90 min
[14] = 10 mg/kg i.v., VAS 0.02 i.u./kg, 120 min
[15] = 10 mg/kg i.v., VAS 0.02 i.u./kg, 180 min
[16] = 10 mg/kg i.v., VAS 0.02 i.u./kg, 240 min
[17] = 10 mg/kg i.v., VAS 0.02 i.u./kg, 300 min
[18] = 10 mg/kg p.o., VAS 0.01 i.u./kg, 30 min
[19] = 10 mg/kg p.o., VAS 0.01 i.u./kg, 60 min
[20] = 10 mg/kg p.o., VAS 0.01 i.u./kg, 90 min
[21] = 10 mg/kg p.o., VAS 0.01 i.u./kg, 120 min
[22] = 10 mg/kg p.o., VAS 0.01 i.u./kg, 180 min
[23] = 10 mg/kg p.o., VAS 0.01 i.u./kg, 240 min
[24] = 10 mg/kg p.o., VAS 0.02 i.u./kg, 30 min
[25] = 10 mg/kg p.o., VAS 0.02 i.u./kg, 60 min
[26] = 10 mg/kg p.o., VAS 0.02 i.u./kg, 90 min
[27] = 10 mg/kg p.o., VAS 0.02 i.u./kg, 120 min
[28] = 10 mg/kg p.o., VAS 0.02 i.u./kg, 180 min
[29] = 10 mg/kg p.o., VAS 0.02 i.u./kg, 240 min

T1 sequence (P30560 whole entry): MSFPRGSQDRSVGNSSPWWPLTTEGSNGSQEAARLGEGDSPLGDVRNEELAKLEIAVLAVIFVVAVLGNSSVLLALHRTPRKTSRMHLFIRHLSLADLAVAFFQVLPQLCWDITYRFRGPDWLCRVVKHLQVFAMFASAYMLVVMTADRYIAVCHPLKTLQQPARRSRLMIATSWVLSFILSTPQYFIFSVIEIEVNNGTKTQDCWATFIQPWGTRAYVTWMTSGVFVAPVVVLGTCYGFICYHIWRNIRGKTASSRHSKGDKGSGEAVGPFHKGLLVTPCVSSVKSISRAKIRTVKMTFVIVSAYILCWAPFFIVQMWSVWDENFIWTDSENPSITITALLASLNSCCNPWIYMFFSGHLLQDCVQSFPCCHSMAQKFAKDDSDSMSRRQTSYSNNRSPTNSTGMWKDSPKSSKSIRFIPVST

Compound: Cc1ccccc1C(=O)Nc1ccc(C(=O)N2Cc3ccnn3Cc3ccccc32)cc1 [Example 210, N-[4-(4H-Pyrazolo[5,1-c][1,4]benzodiazepin-5(10H)-ylcarbonyl)phenyl]-2-methylbenzamide]
IC50 [1]: 58 nM | Osmolality ([2]; 10 mg/kg orally): 451 mOsm/kg | Urine Volume ([2]; 10 mg/kg orally): 15.2 ml/4 hrs | Max. % Inhibition ([3]; 10 mg/kg i.v.): 78% | Time (of max. % inhibition) ([3]; 10 mg/kg i.v.): 90 min

Compound: Cc1cccc(NC(=O)c2ccc(C(=O)N3Cc4cccn4Cc4ccccc43)cc2)c1C [Example 485, N-(2,3-Dimethylphenyl)-4-(5H-pyrrolo[2,1-c][1,4]benzodiazepin-10(11H)-ylcarbonyl)benzamide]
IC50 [1]: 240 nM | Osmolality ([2]; 10 mg/kg orally): 961 mOsm/kg | Urine Volume ([2]; 10 mg/kg orally): 4 ml/4 hrs | Max. % Inhibition ([3]; 30 mg/kg i.v.): 64% | Time (of max. % inhibition) ([3]; 30 mg/kg i.v.): 60 min

Compound: Cc1ccc(F)cc1C(=O)Nc1ccc(C(=O)N2Cc3cccn3Cc3ccccc32)c(Cl)c1 [Example 482, N-[4-(5H-pyrrolo[2,1-c][1,4]benzodiazepin-10(11H)-ylcarbony)-3-chlorophenyl]-5-fluoro-2-methylbenzamide]
IC50 [1]: 410 nM | Osmolality ([2]; 10 mg/kg orally): 372 ± 17 mOsm/kg | Urine Volume ([2]; 10 mg/kg orally): 22 ± 0.9 ml/4 hrs | Max. % Inhibition ([3]; 10 mg/kg i.v.): 40% | Time (of max. % inhibition) ([3]; 10 mg/kg i.v.): 60 min

Compound: Cc1ccccc1CC(=O)Nc1ccc(C(=O)N2Cc3cccn3Cc3ccccc32)cc1 [Example 93, N-[4(5H-Pyrrolo[2,1-c][1,4]benzodiazepin-10(11H)-ylcarbonyl)phenyl]-2-methylbenzeneacetamide]
IC50 [1]: 0.9 nM | % Inhibition [3, 4]: 96% | Average Change [3, 4]: 2 | % Inhibition [3, 5]: 94% | Average Change [3, 5]: 3 | % Inhibition [3, 6]: 90% | Average Change [3, 6]: 5 | % Inhibition [3, 7]: 88% | Average Change [3, 7]: 6 | % Inhibition [3, 8]: 73% | Average Change [3, 8]: 13.5 | % Inhibition [3, 9]: 74% | Average Change [3, 9]: 13 | % Inhibition [3, 10]: 76% | Average Change [3, 10]: 12 | % Inhibition [3, 11]: 94% | Average Change [3, 11]: 4.5 | % Inhibition [3, 12]: 92% | Average Change [3, 12]: 5.5 | % Inhibition [3, 13]: 90% | Average Change [3, 13]: 7 | % Inhibition [3, 14]: 90% | Average Change [3, 14]: 7 | % Inhibition [3, 15]: 78% | Average Change [3, 15]: 15.5 | % Inhibition [3, 16]: 76% | Average Change [3, 16]: 17 | % Inhibition [3, 17]: 74% | Average Change [3, 17]: 18.5

Compound: COC(=O)c1ccc(C(=O)Nc2ccc(C(=O)N3Cc4cccn4Cc4ccccc43)cc2)cc1 [Example 489]
inhibition at 10 µM [1]: 61% | Osmolality ([2]; 10 mg/kg orally): 1194 mOsm/kg | Urine Volume ([2]; 10 mg/kg orally): 6.1 ml/4 hrs | Max. % Inhibition ([3]; 30 mg/kg i.v.): 39% | Time (of max. % inhibition) ([3]; 30 mg/kg i.v.): 120 min

Compound: Cc1ccccc1C(=O)Nc1c(C)cc(C(=O)N2Cc3cccn3Cc3ccccc32)cc1C [Example 472]
IC50 [1]: 890 nM | Osmolality ([2]; 10 mg/kg orally): 1453 mOsm/kg | Urine Volume ([2]; 10 mg/kg orally): 4.3 ml/4 hrs | Max. % Inhibition ([3]; 30 mg/kg i.v.): 36% | Time (of max. % inhibition) ([3]; 30 mg/kg i.v.): 90 min

Compound: O=C(Nc1ccc(C(=O)N2Cc3cccn3-c3ccccc32)cc1)c1ccc(Cl)cc1Cl [Example 17, N-[4-(pyrrolo(1,2-a]quinoxalin-5(4H)-ylcarbonyl)phenyl]-2,4-dichloro-benzamide]
IC50 [1]: 1200 nM | Osmolality ([2]; 30 mg/kg orally): 1374 mOsm/kg | Urine Volume ([2]; 30 mg/kg orally): 4.1 ml/4 hrs | Max. % Inhibition ([3]; 30 mg/kg i.v.): 50% | Time (of max. % inhibition) ([3]; 30 mg/kg i.v.): 60 min

Compound: O=C(Nc1ccc(C(=O)N2Cc3cccn3Cc3ccccc32)cc1)c1cc(Cl)ccc1Cl [Example 4, N-[4-(5H-pyrrolo[2,1-c][1,4]benzodiazepin-10(11H)-ylcarbonyl)phenyl]-2,5-dichlorobenzamide]
IC50 [1]: 120 nM | Osmolality ([2]; 1 mg/kg orally): 1129 mOsm/kg | Urine Volume ([2]; 1 mg/kg orally): 2 ml/4 hrs | Osmolality ([2]; 3 mg/kg orally): 646 ± 115 mOsm/kg | Urine Volume ([2]; 3 mg/kg orally): 9.5 ± 1.2 ml/4 hrs | Osmolality ([2]; 10 mg/kg orally): 571 mOsm/kg | Urine Volume ([2]; 10 mg/kg orally): 16.9 ml/4 hrs | % Inhibition [3, 18]: 6% | Average Change [3, 18]: 44.5 | % Inhibition [3, 19]: 36% | Average Change [3, 19]: 30.5 | % Inhibition [3, 20]: 19% | Average Change [3, 20]: 38.5 | % Inhibition [3, 21]: 32% | Average Change [3, 21]: 32.5 | % Inhibition [3, 22]: 25% | Average Change [3, 22]: 35.5 | % Inhibition [3, 23]: 39% | Average Change [3, 23]: 29 | % Inhibition [3, 24]: 27% | Average Change [3, 24]: 36 | % Inhibition [3, 25]: 10% | Average Change [3, 25]: 44.5 | % Inhibition [3, 26]: -5% | Average Change [3, 26]: 52 | % Inhibition [3, 27]: -2% | Average Change [3, 27]: 50.5 | % Inhibition [3, 28]: 11% | Average Change [3, 28]: 44 | % Inhibition [3, 29]: 47% | Average Change [3, 29]: 26

Compound: CSc1ccccc1C(=O)Nc1ccc(C(=O)N2Cc3cccn3Cc3ccccc32)cc1 [Example 85, N-[4-(5H-Pyrrolo[2,1-c][1,4]benzodiazepin-10(11H)-ylcarbonyl)phenyl]-2-(methylthio)benzamide]
IC50 [1]: 9 nM | % Inhibition [3, 4]: 83% | Average Change [3, 4]: 4.5 | % Inhibition [3, 5]: 74% | Average Change [3, 5]: 7 | % Inhibition [3, 6]: 64% | Average Change [3, 6]: 9.5 | % Inhibition [3, 7]: 66% | Average Change [3, 7]: 9 | % Inhibition [3, 8]: 42% | Average Change [3, 8]: 15.5 | % Inhibition [3, 9]: 55% | Average Change [3, 9]: 12 | % Inhibition [3, 10]: 5% | Average Change [3, 10]: 12 | % Inhibition [3, 11]: 75% | Average Change [3, 11]: 9 | % Inhibition [3, 12]: 73% | Average Change [3, 12]: 9.5 | % Inhibition [3, 13]: 79% | Average Change [3, 13]: 7.5 | % Inhibition [3, 14]: 82% | Average Change [3, 14]: 6.5 | % Inhibition [3, 15]: 45% | Average Change [3, 15]: 19.5 | % Inhibition [3, 16]: 49% | Average Change [3, 16]: 18 | % Inhibition [3, 17]: 49% | Average Change [3, 17]: 18

More lines, main results first:

IC50 [1]: 67 nM
Compound: CC(=O)OC(C(=O)Nc1ccc(C(=O)N2Cc3cccn3Cc3ccccc32)cc1)c1ccccc1 (stereo not drawn) [Example 587, α-(Acetyloxy)-N-[4-(5H-pyrrolo[2,1-c][1,4]benzodiazepin-10(11H)-ylcarbonyl)phenyl]benzeneacetamide]
Osmolality ([2]; 10 mg/kg orally): 868 mOsm/kg | Urine Volume ([2]; 10 mg/kg orally): 9 ml/4 hrs | Max. % Inhibition ([3]; 10 mg/kg i.v.): 75% | Time (of max. % inhibition) ([3]; 10 mg/kg i.v.): 60 min

IC50 [1]: 280 nM
Compound: NC(=O)CNC(C(=O)Nc1ccc(C(=O)N2Cc3cccn3Cc3ccccc32)cc1)c1ccccc1 (stereo not drawn) [Example 585]
Osmolality ([2]; 10 mg/kg orally): 1483 mOsm/kg | Urine Volume ([2]; 10 mg/kg orally): 3.3 ml/4 hrs | Max. % Inhibition ([3]; 10 mg/kg i.v.): 56% | Time (of max. % inhibition) ([3]; 10 mg/kg i.v.): 30 min

IC50 [1]: 46 nM
Compound: O=C(Nc1ccc(C(=O)N2Cc3cccn3Cc3ccccc32)cc1)c1cc(Cl)cc(Cl)c1Cl [Example 599, N-[4-(5H-Pyrrolo[2,1-c][1,4]benzodiazepin-10(11H)-ylcarbonyl)phenyl]-2,3,5-trichlorobenzamide]
Osmolality ([2]; 10 mg/kg orally): 407 mOsm/kg | Urine Volume ([2]; 10 mg/kg orally): 18 ml/4 hrs | Max. % Inhibition ([3]; 30 mg/kg i.v.): 86% | Time (of max. % inhibition) ([3]; 30 mg/kg i.v.): 90 min

inhibition at 10 µM [1]: 78%
Compound: O=C(Nc1ccc(C(=O)N2Cc3ccc(C(=O)C(F)(F)F)n3Cc3ccccc32)cc1)c1ccccc1C(F)(F)F [Example 594]
Osmolality ([2]; 10 mg/kg orally): 1172 ± 182 mOsm/kg | Urine Volume ([2]; 10 mg/kg orally): 4.9 ± 1.2 ml/4 hrs | Max. % Inhibition ([3]; 30 mg/kg i.v.): 36% | Time (of max. % inhibition) ([3]; 30 mg/kg i.v.): 180 min

IC50 [1]: 210 nM
Compound: COC(=O)c1ccc2n1Cc1ccccc1N(C(=O)c1ccc(NC(=O)c3ccc(Cl)cc3Cl)cc1)C2 [Example 593]
Osmolality ([2]; 10 mg/kg orally): 577 mOsm/kg | Urine Volume ([2]; 10 mg/kg orally): 11.8 ml/4 hrs | Max. % Inhibition ([3]; 30 mg/kg i.v.): 67% | Time (of max. % inhibition) ([3]; 30 mg/kg i.v.): 60 min
